Reference: patent publication US20250144224A1, “ABL INHIBITORS AND USES THEREOF” (The Regents of the University of California, priority 2021, published 2025)

Tests used:
K562 cells (wild-type) = assay: CellTiter-Glo cell viability, K562 wild-type; settings: Homo sapiens, K562, 72 h, read-out: EC50 (nM) CTG K562 wt
[1] = tested on: K562 cells (CRISPR base-edited Bcr-Abl T315I); assay: CellTiter-Glo cell viability, K562 Bcr-Abl T315I; settings: Homo sapiens, K562, 72 h, read-out: EC50 (nM) CTG K562 T315I
Abl wt = Abl wt (Homo sapiens, UniProt P00519); assay: SelectScreen Z'LYTE kinase assay, Abl wt
Abl_T315I = Abl_T315I (Homo sapiens, UniProt P00519, T315I); assay: SelectScreen Z'LYTE kinase assay, Abl T315I
[2] = Parallel artificial membrane permeability assay (PAMPA); format: in vitro ADME
Protocol: PAMPA was performed by Quintara Discovery using the BioCoat Pre-coated PAMPA Plate System (Corning) as described previously (15) and based on manufacturer's recommendations. All compounds were assessed at 100 μM in PBS. Compound concentrations in donor and acceptor compartments were quantified using liquid chromatography-mass spectrometry (LC-MS) 5 h following compound addition into the donor compartment.

[3] = tested on: K562 CRISPRi or CRISPRa cells expressing sgRNAs targeting IFITM1-3; assay: Internally normalized cellular fluorescence uptake assay; settings: 24 h; TAMRA-N3 10 nM, TAMRA-PEG8-N3 1 μM, RapaTAMRA 1 nM

SMILES	EC50 (K562 cells (wild-type)) [nM]	EC50 [1] [nM]	further results
Cc1ccc(C(=O)Nc2ccc(CN3CCN(C(=O)CCOCCOCCOCCOCCOCCOCCOCCOCCOCCOCCOCCOCCOCCOCCOCCOCCOCCOCCOCCOCCOCCOCCOCCOCCOCCOCCOCCOCCNC(=O)C4CCN(c5ncc(C(=O)Nc6ccc(OC(F)(F)Cl)cc6)cc5-c5ccn[nH]5)CC4)CC3)c(C(F)(F)F)c2)cc1C#Cc1cnc2cccnn12 [PonatiLink-1-28]	1.82	49.1	–
Cc1ccc(C(=O)Nc2ccc(CN3CCN(C)CC3)c(C(F)(F)F)c2)cc1C#Cc1cnc2cc(OCCOCCOCCOCCOCCOCCOCCNC(=O)CCOCCOCCOCCOCCNC(=O)C3CCN(c4ncc(C(=O)Nc5ccc(OC(F)(F)Cl)cc5)cc4-c4ccn[nH]4)CC3)ccn12 [PonatiLink-2-7-4]	0.39	1.3	–
Cc1ccc(C(=O)Nc2ccc(CN3CCN(C)CC3)c(C(F)(F)F)c2)cc1C#Cc1cnc2cc(OCCOCCOCCOCCOCCOCCOCCNC(=O)CCOCCOCCOCCOCCOCCOCCNC(=O)C3CCN(c4ncc(C(=O)Nc5ccc(OC(F)(F)Cl)cc5)cc4-c4ccn[nH]4)CC3)ccn12 [PonatiLink-2-7-6]	0.38	1.06	–
Cc1ccc(C(=O)Nc2ccc(CN3CCN(C)CC3)c(C(F)(F)F)c2)cc1C#Cc1cnc2cc(OCCOCCOCCOCCOCCOCCOCCNC(=O)CCOCCOCCOCCOCCOCCOCCOCCOCCNC(=O)C3CCN(c4ncc(C(=O)Nc5ccc(OC(F)(F)Cl)cc5)cc4-c4ccn[nH]4)CC3)ccn12 [PonatiLink-2-7-8]	0.36	0.94	–
Cc1ccc(C(=O)Nc2ccc(CN3CCN(C)CC3)c(C(F)(F)F)c2)cc1C#Cc1cnc2cc(OCCOCCOCCOCCOCCOCCOCCNC(=O)CCOCCOCCOCCOCCOCCOCCOCCOCCOCCOCCNC(=O)C3CCN(c4ncc(C(=O)Nc5ccc(OC(F)(F)Cl)cc5)cc4-c4ccn[nH]4)CC3)ccn12 [PonatiLink-2-7-10]	0.43	0.94	–
CO[C@@H]1C[C@@H]2CC[C@@H](C)[C@@](O)(O2)C(=O)C(=O)N2CCCC[C@@H]2C(=O)O[C@H]([C@H](C)C[C@H]2CC[C@H](OCCOCc3cn(CCOCCOCCOCCOCCOCCOCCOCCOCCC(=O)NCCCCn4nc(-c5ccc6oc(N)nc6c5)c5c(N)ncnc54)nn3)[C@H](OC)C2)CC(=O)[C@H](C)/C=C(\C)[C@H](O)[C@@H](OC)C(=O)[C@H](C)C[C@H](C)/C=C/C=C/C=C/1C [RapaLink-1]	–	–	artificial membrane permeability by PAMPA ([2]; PAMPA): no measurable permeability
CO[C@H]1C[C@@H]2CC[C@@H](C)[C@@](O)(O2)C(=O)C(=O)N2CCCC[C@H]2C(=O)O[C@H]([C@H](C)C[C@@H]2CC[C@@H](OCCOCc3cn(CCOCCOCCOCCOCCOCCOCCOCCOCCNC(=O)c4ccc(C(=O)[O-])c(-c5c6ccc(=[N+](C)C)cc-6oc6cc(N(C)C)ccc56)c4)nn3)[C@H](OC)C2)CC(=O)[C@H](C)/C=C(\C)[C@@H](O)[C@@H](OC)C(=O)[C@H](C)C[C@H](C)/C=C/C=C/C=C/1C [RapaTAMRA]	–	–	change in relative cellular uptake with IFITM1-3 knockdown / overexpression [3]: decreased uptake upon knockdown of IFITM1-3 and increased uptake upon overexpression
O=C(Nc1ccc(OC(F)(F)Cl)cc1)c1cnc(N2CC[C@@H](O)C2)c(-c2ccn[nH]2)c1 [asciminib, reference compound]	–	–	artificial membrane permeability by PAMPA ([2]; 100 μM in PBS, 5 h, LC-MS): readily permeable
Cc1nc(Nc2ncc(C(=O)Nc3c(C)cccc3Cl)s2)cc(N2CCN(CCO)CC2)n1 [dasatinib]	–	–	artificial membrane permeability by PAMPA ([2]; 100 μM in PBS, 5 h, LC-MS): readily permeable
CO[C@H]1C[C@@H]2CC[C@@H](C)[C@@](O)(O2)C(=O)C(=O)N2CCCC[C@H]2C(=O)O[C@H]([C@H](C)C[C@@H]2CC[C@@H](O)[C@H](OC)C2)CC(=O)[C@H](C)/C=C(\C)[C@@H](O)[C@@H](OC)C(=O)[C@H](C)C[C@H](C)/C=C/C=C/C=C/1C [rapamycin]	–	–	artificial membrane permeability by PAMPA ([2]; 100 μM in PBS, 5 h, LC-MS): readily permeable
CC(C)n1nc(-c2ccc3oc(N)nc3c2)c2c(N)ncnc21 [sapanisertib]	–	–	artificial membrane permeability by PAMPA ([2]; 100 μM in PBS, 5 h, LC-MS): readily permeable

Second part, led by results:

EC50 (K562 cells (wild-type)) [nM]	EC50 [1] [nM]	SMILES	further results
2.49	> 300	Cc1nc(Nc2ncc(C(=O)Nc3c(C)cccc3Cl)s2)cc(N2CCN(C(=O)CCOCCOCCOCCOCCOCCOCCOCCOCCOCCOCCNC(=O)C3CCN(c4ncc(C(=O)Nc5ccc(OC(F)(F)Cl)cc5)cc4-c4ccn[nH]4)CC3)CC2)n1 [DasatiLink-2]	–
2.94	> 300	Cc1nc(Nc2ncc(C(=O)Nc3c(C)cccc3Cl)s2)cc(N2CCN(C(=O)CCOCCOCCOCCOCCOCCOCCOCCOCCNC(=O)C3CCN(c4ncc(C(=O)Nc5ccc(OC(F)(F)Cl)cc5)cc4-c4ccn[nH]4)CC3)CC2)n1 [DasatiLink-3]	EC50 (Abl wt): 1.04 nM
2.62	> 300	Cc1nc(Nc2ncc(C(=O)Nc3c(C)cccc3Cl)s2)cc(N2CCN(C(=O)CCOCCOCCOCCOCCOCCOCCNC(=O)C3CCN(c4ncc(C(=O)Nc5ccc(OC(F)(F)Cl)cc5)cc4-c4ccn[nH]4)CC3)CC2)n1 [DasatiLink-4]	EC50 (Abl wt): 1.81 nM
2.76	43.7	Cc1ccc(C(=O)Nc2ccc(CN3CCN(C(=O)CCOCCOCCOCCOCCOCCOCCOCCOCCOCCOCCOCCOCCNC(=O)C4CCN(c5ncc(C(=O)Nc6ccc(OC(F)(F)Cl)cc6)cc5-c5ccn[nH]5)CC4)CC3)c(C(F)(F)F)c2)cc1C#Cc1cnc2cccnn12 [PonatiLink-1-12]	EC50 (Abl_T315I): 3580 nM; EC50 (Abl wt): 319 nM
1.4	28.7	Cc1ccc(C(=O)Nc2ccc(CN3CCN(C(=O)CCOCCOCCOCCOCCOCCOCCOCCOCCOCCOCCOCCOCCOCCOCCOCCOCCNC(=O)C4CCN(c5ncc(C(=O)Nc6ccc(OC(F)(F)Cl)cc6)cc5-c5ccn[nH]5)CC4)CC3)c(C(F)(F)F)c2)cc1C#Cc1cnc2cccnn12 [PonatiLink-1-16]	EC50 (Abl_T315I): 229 nM; EC50 (Abl wt): 82 nM
1.02	26.2	Cc1ccc(C(=O)Nc2ccc(CN3CCN(C(=O)CCOCCOCCOCCOCCOCCOCCOCCOCCOCCOCCOCCOCCOCCOCCOCCOCCOCCOCCOCCOCCNC(=O)C4CCN(c5ncc(C(=O)Nc6ccc(OC(F)(F)Cl)cc6)cc5-c5ccn[nH]5)CC4)CC3)c(C(F)(F)F)c2)cc1C#Cc1cnc2cccnn12 [PonatiLink-1-20]	EC50 (Abl_T315I): 215 nM; EC50 (Abl wt): 10.8 nM
0.87	26.3	Cc1ccc(C(=O)Nc2ccc(CN3CCN(C(=O)CCOCCOCCOCCOCCOCCOCCOCCOCCOCCOCCOCCOCCOCCOCCOCCOCCOCCOCCOCCOCCOCCOCCOCCOCCNC(=O)C4CCN(c5ncc(C(=O)Nc6ccc(OC(F)(F)Cl)cc6)cc5-c5ccn[nH]5)CC4)CC3)c(C(F)(F)F)c2)cc1C#Cc1cnc2cccnn12 [PonatiLink-1-24]	–
